From publication PMC6918687, “Pharmacological inhibition of TAK1, with the selective inhibitor takinib, alleviates clinical manifestation of arthritis in CIA mice” (Arthritis Research & Therapy, 2019)

Legend:
[1] = test system: RA-FLS cells; experiment: Phospho-kinase proteome array, TNF-stimulated RA-FLS cells; format: cell-based, human; details: takinib 10 μM, TNF 30 ng/mL 30 min
Protocol: Rheumatoid arthritis fibroblast-like synoviocytes (RA-FLS) cells were prepared from surgical synovial samples at the University of Michigan as previously described. Cells were isolated from 4 individual patients (3 female, 1 male) and passaged no more than 2 times before use. Cells were cultured in CRML media, 10% FBS, 1% penicillin-streptomycin (PS), and 1% glutamate.
Briefly, 10^6 cells were plated and either no treatment (naïve) or pretreated with takinib (10 μM) or vehicle (DMSO) for 30 min prior to stimulation with TNF (30 ng/mL) for 30 min at 37 °C in 5% CO2 for phospho-kinase assay (R&D Systems). NF-κB and cytokine assays were performed as previously described; however, cells were incubated for 24 h post-TNF (30 ng/mL) or LPS (10 ng/mL) stimulation.

[2] = test system: CIA mice; experiment: CIA mouse model: joint histopathology scores, day 36; format: in vivo, DBA/1 mice
From the text: After 1–2 days in fixative and 4–5 days in 5% formic acid for decalcification, tissues were trimmed and processed for paraffin embedding. Paws were embedded in paraffin in the frontal plane, and the knees were embedded with the patella facing down. Ankles, if left attached to the hind paw, were also embedded in the frontal plane but may be detached and sectioned in the sagittal plane for special purposes. Left/right pairs were typically embedded in the same block. Sections were cut and stained with toluidine blue.
The paw score criteria were as follows: 0 = Normal. 0.5 = Very minimal, affects only 1 joint or minimal multifocal periarticular infiltration of inflammatory cells. 1 = Minimal infiltration of inflammatory cells in synovium and periarticular tissue of affected joints. 2 = Mild infiltration of inflammatory cells. When referring to paws, generally restricted to affected joints (1–3 affected). 3 = Moderate infiltration with moderate edema. When referring to paws, restricted to affected joints, generally 3–4 joints and the wrist or ankle. 4 = Marked infiltration affecting most areas with marked edema, 1 or 2 unaffected joints may be present. 5 = Severe diffuse infiltration with severe edema affecting all joints (to some extent) and periarticular tissues.
The knee score criteria were as follows: 0 = Normal. 0.5 = Very minimal, affects only one area of the synovium or minimal multifocal periarticular infiltration of inflammatory cells. 1 = Minimal infiltration of inflammatory cells in synovium and periarticular tissue of affected synovial areas. 2 = Mild diffuse infiltration of inflammatory cells. 3 = Moderate diffuse infiltration of inflammatory cells. 4 = Marked diffuse infiltration of inflammatory cells. 5 = Severe diffuse infiltration of inflammatory cells.
The cartilage damage score criteria were as follows: 0 = Normal. 0.5 = Very minimal = Affects marginal zones only of one to several areas (knees) or joints (paws). 1 = Minimal = Generally minimal to mild loss of toluidine blue staining (proteoglycan) with no obvious chondrocyte loss or collagen disruption in affected joints/areas. 2 = Mild = Generally mild loss of toluidine blue staining (proteoglycan) with focal areas of chondrocyte loss and/or collagen disruption in some affected joints/areas. Paws may have one or two digit joints with near total to total loss of cartilage. 3 = Moderate = Generally moderate loss of toluidine blue staining (proteoglycan) with multifocal chondrocyte loss and/or collagen disruption in affected joints/areas. Paws may have three or four joints with near total or total loss. In the knee, some matrix remains on any affected surface with areas of severe matrix loss. 4 = Marked = Marked loss of toluidine blue staining (proteoglycan) with multifocal marked (depth to deep zone or tidemark) chondrocyte loss and/or collagen disruption in most joints with a few unaffected or mildly affected. In the knee, one surface with total to near total cartilage loss. 5 = Severe = Severe diffuse loss of toluidine blue staining (proteoglycan) with severe (depth to tide mark) chondrocyte loss and/or collagen disruption in most or all joints.

[3] = test system: CIA mice; experiment: Type II collagen-induced arthritis (CIA) mouse model: clinical arthritis score and body weight; format: in vivo, DBA/1 mice; details: for % Inhibition from Vehicle Disease (clinical score AUC): day 36
Protocol: The DBA/1 CIA model was conducted in accordance with The Guide for the Care & Use of Laboratory Animals (8th Edition) and therefore in accordance with all Bolder BioPATH IACUC approved policies and procedures. The Bolder Biopath IACUC approved a “blanket” IACUC protocol for this specific working protocol (BBP-001). No acceptable alternative test systems were identified for the animals used in this study. […] Clinical evaluation was performed under experimenter blinded conditions.
Collagen was prepared as a 4 mg/ml solution in 0.01 N acetic acid. Equal volumes of 4 mg/ml collagen and 5 mg/ml Freund’s complete adjuvant were emulsified by hand mixing with syringes for approximately 5 min, at which point a bead of this material holds its form when placed in water. On study days 0 and 21, animals were anesthetized with isoflurane and given intradermal injections of a total of 400 μg of type II collagen in Freund’s complete adjuvant at the base of the tail.
Mice were randomized by body weight into treatment groups on study day 18. Treatment was initiated following enrollment. On study day 36, the mice were euthanized for necropsy. Clinical scores were given for each of the paws (right front, left front, right rear, left rear) on study days 18–36. Experimenter was blinded from the treatment group during clinical evaluation and scoring.

## CCCn1/c(=N/C(=O)c2cccc(C(N)=O)c2)[nH]c2ccccc21 [takinib]
[1]; n=4
  AMPKα1 phosphorylation, array signal, Mean: 111.9564
  AMPKα2 phosphorylation, array signal, Mean: 187.6195
  Akt 1/2/3 (pS473) array signal, Mean: 39.51
  Akt 1/2/3 (pT308) array signal, Mean: 122.7503
  CREB phosphorylation, array signal, Mean: 232.3464
  Chk-2 phosphorylation, array signal, Mean: 86.85
  EGF R phosphorylation, array signal, Mean: 60.59
  ERK1/2 phosphorylation, array signal, Mean: 95.02
  FAK phosphorylation, array signal, Mean: 142.7814
  Fgr phosphorylation, array signal, Mean: 41.73
  Fyn phosphorylation, array signal, Mean: 78.9
  GSK-3α/β phosphorylation, array signal, Mean: 191.6206
  HSP27 phosphorylation, array signal, Mean: 202.916
  HSP60 array signal, Mean: 40.313
  Hck phosphorylation, array signal, Mean: 119.1771
  JNK 1/2/3 phosphorylation, array signal, Mean: 100.6526
  Lck phosphorylation, array signal, Mean: 44.393
  Lyn phosphorylation, array signal, Mean: 69.34
  MSK1/2 phosphorylation, array signal, Mean: 239.7188
  PDGF Rβ phosphorylation, array signal, Mean: 50.4425
  PLC-γ1 phosphorylation, array signal, Mean: 34.4325
  PRAS40 phosphorylation, array signal, Mean: 244.5596
  PYK2 phosphorylation, array signal, Mean: 87.75
  RSK1/2/3 phosphorylation, array signal, Mean: 168.3928
  STAT2 phosphorylation, array signal, Mean: 200.5311
  STAT3 (pS727) array signal, Mean: 95.82
  STAT3 (pY705) array signal, Mean: 85.93
  STAT5a phosphorylation, array signal, Mean: 99.7
  STAT5a/b phosphorylation, array signal, Mean: 146.267
  STAT5b phosphorylation, array signal, Mean: 154.004
  STAT66 phosphorylation, array signal, Mean: 147.8809
  Src phosphorylation, array signal, Mean: 176.3574
  TOR phosphorylation, array signal, Mean: 129.6068
  WNK1 phosphorylation, array signal, Mean: 218.9865
  Yes phosphorylation, array signal, Mean: 124.3601
  c-Jun phosphorylation, array signal, Mean: 196.6019
  eNOS phosphorylation, array signal, Mean: 41.6005
  p27 phosphorylation, array signal, Mean: 40.56
  p38α phosphorylation, array signal, Mean: 59.41
  p53 (pS15) array signal, Mean: 47.48
  p53 (pS46) array signal, Mean: 126.377
  p53 (pS392) array signal, Mean: 83.6435
  p70 S6 Kinase (T389) array signal, Mean: 78.65
  p70 S6 Kinase (site not given) array signal, Mean: 110.3643
  β-Catenin array signal, Mean: 57.16
[1]; 45 phospho-kinase proteins profiled
  number of human kinases with significantly reduced phosphorylation: 21
[2]; 50 mg/kg daily (discussion)
  reduction of disease burden: ~ 40%
[2]; 50 mg/kg daily, all joints, p = 0.06
  reduction of overall periosteal bone width vs vehicle: 35%
[2]; 50 mg/kg daily, day 36
  reduction of overall sum score of knees: ~ 40%
[2]; 50 mg/kg daily, day 36, p = 0.013
  cartilage damage score, all joints: significantly reduced
[2]; 50 mg/kg daily, day 36, p = 0.019
  inflammation score, all joints: significantly reduced
[2]; 50 mg/kg daily, day 36, p = 0.02
  reduction of overall joint pathology (all joints summed histological score) vs vehicle: ~ 30%
[2]; 50 mg/kg daily, inflammation, pannus, cartilage damage, bone resorption, periosteal bone formation
  average reduction in disease pathology, hind paws and forepaws: 20–30%
[2]; 50 mg/kg daily, p = 0.0042
  histological score of cartilage damage, knees: significantly reduced
[2]; 50 mg/kg daily, p = 0.0044
  histological score of inflammation, knees: significantly reduced
[2]; 50 mg/kg daily, trend
  reduction of bone resorption histological score, knees: ~ 40%
  reduction of pannus histological score, knees: ~ 40%
[2]; 50 mg/kg daily, vs vehicle, p = 0.0078
  overall sum histological score, hind paws: reduced
[2]; 50 mg/kg daily, vs vehicle, p = 0.0091
  overall sum histological score, forepaws: reduced
[3]; CIA DBA/1 mice, takinib 50 mg/kg i.p. daily
  % Inhibition from Vehicle Disease (clinical score AUC): 32%
[3]; CIA DBA/1 mice, takinib 50 mg/kg i.p. daily, listed as Takinib
  % Inhibition from Vehicle Disease (clinical score AUC): 32% (p=0.08)
[3]; CIA DBA/1 mice, takinib 50 mg/kg i.p. daily, evaluated at day 36
  Mean Clinical Arthritic Score (AUC): 14.19
[3]; CIA mice, 50 mg/kg i.p. daily, at termination of the study, p = 0.009
  less overall body weight loss compared to vehicle control: 50%
[3]; CIA mice, 50 mg/kg i.p. daily, days 30–36
  mean daily clinical arthritis scores vs vehicle disease control: significantly differed
